# Data published in PubChem BioAssay AID2060507 (Molecular Pharmacology Branch, DTP, NCI, 2025).
# System: 519858-162-T-J1-PDC complex spheroid viability
# Assay: Anticancer human tumor 519858-162-T-J1-PDC patient-derived colon adenocarcinoma cell line growth inhibition [GQUAD]
# Conditions: for IC50: curve of first compound; for viability, T/C: stronger effect = lower value
# Method in brief: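 Tumor cells were grown as complex spheroids with HUVEC endothelial cells and mesenchymal stem cells as stroma. G-quadruplex stabilizers were combined with targeted agents over half-log dilutions from near the clinical Cmax, or from 10 microM.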
# [1] = second compound 0.0316 µM, first compound 0.0316 µM
# [2] = second compound 0.0316 µM, first compound 0.1 µM
# [3] = second compound 0.0316 µM, first compound 0.316 µM
# [4] = second compound 0.0316 µM, first compound 1 µM
# [5] = second compound 0.0316 µM, first compound 3.16 µM
# [6] = second compound 0.0316 µM, first compound 10 µM
# [7] = second compound 0.1 µM, first compound 0.0316 µM
# [8] = second compound 0.1 µM, first compound 0.1 µM
# [9] = second compound 0.1 µM, first compound 0.316 µM
# [10] = second compound 0.1 µM, first compound 1 µM
# [11] = second compound 0.1 µM, first compound 3.16 µM
# [12] = second compound 0.1 µM, first compound 10 µM
# [13] = second compound 0.316 µM, first compound 0.0316 µM
# [14] = second compound 0.316 µM, first compound 0.1 µM
# [15] = second compound 0.316 µM, first compound 0.316 µM
# [16] = second compound 0.316 µM, first compound 1 µM
# [17] = second compound 0.316 µM, first compound 3.16 µM
# [18] = second compound 0.316 µM, first compound 10 µM
# [19] = second compound 1 µM, first compound 0.0316 µM
# [20] = second compound 1 µM, first compound 0.1 µM
# [21] = second compound 1 µM, first compound 0.316 µM
# [22] = second compound 1 µM, first compound 1 µM
# [23] = second compound 1 µM, first compound 3.16 µM
# [24] = second compound 1 µM, first compound 10 µM
# [25] = second compound 3.16 µM, first compound 0.0316 µM
# [26] = second compound 3.16 µM, first compound 0.1 µM
# [27] = second compound 3.16 µM, first compound 0.316 µM
# [28] = second compound 3.16 µM, first compound 1 µM
# [29] = second compound 3.16 µM, first compound 3.16 µM
# [30] = second compound 3.16 µM, first compound 10 µM
# [31] = second compound 10 µM, first compound 0.0316 µM
# [32] = second compound 10 µM, first compound 0.1 µM
# [33] = second compound 10 µM, first compound 0.316 µM
# [34] = second compound 10 µM, first compound 1 µM
# [35] = second compound 10 µM, first compound 3.16 µM
# [36] = second compound 10 µM, first compound 10 µM
# 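Note: spheroids exposed to compounds for 7 days.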
# 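Throughout, for viability, T/C: 100% = DMSO vehicle control viability.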
smiles,measurement,setting,value
COc1cccc2c1C(=O)c1c(O)c3c(c(O)c1C2=O)CC(O)(C(=O)CO)CC3OC1CC(N)C(O)C(C)O1 (stereo unspecified) + Cc1[nH]c2ccc(F)cc2c1-c1nc2c3cccnc3c3ncccc3c2[nH]1,IC50,second compound 0.0316 µM,> 10 µM
same,IC50,second compound 0.1 µM,> 10 µM
same,IC50,second compound 0.316 µM,> 10 µM
same,IC50,second compound 1 µM,> 10 µM
same,IC50,second compound 3.16 µM,> 10 µM
same,IC50,second compound 10 µM,> 10 µM
same,"viability, T/C",[1],117%
same,"viability, T/C",[2],126%
same,"viability, T/C",[3],95.3%
same,"viability, T/C",[4],81.9%
same,"viability, T/C",[5],82.1%
same,"viability, T/C",[6],75.3%
same,"viability, T/C",[7],104%
same,"viability, T/C",[8],122%
same,"viability, T/C",[9],98.5%
same,"viability, T/C",[10],80.1%
same,"viability, T/C",[11],61.3%
same,"viability, T/C",[12],62.1%
same,"viability, T/C",[13],82.3%
same,"viability, T/C",[14],95.4%
same,"viability, T/C",[15],121%
same,"viability, T/C",[16],78.6%
same,"viability, T/C",[17],72.9%
same,"viability, T/C",[18],50.6%
same,"viability, T/C",[19],109%
same,"viability, T/C",[20],98.6%
same,"viability, T/C",[21],109%
same,"viability, T/C",[22],70.2%
same,"viability, T/C",[23],69.9%
same,"viability, T/C",[24],51.9%
same,"viability, T/C",[25],96.3%
same,"viability, T/C",[26],72.7%
same,"viability, T/C",[27],78.3%
same,"viability, T/C",[28],68.2%
same,"viability, T/C",[29],62.4%
same,"viability, T/C",[30],72.9%
same,"viability, T/C",[31],47%
same,"viability, T/C",[32],79.9%
same,"viability, T/C",[33],60.7%
same,"viability, T/C",[34],51.4%
same,"viability, T/C",[35],44%
same,"viability, T/C",[36],78.1%
Nc1ccn(C2OC(CO)C(O)C2(F)F)c(=O)n1 (stereo unspecified) + Cc1[nH]c2ccc(F)cc2c1-c1nc2c3cccnc3c3ncccc3c2[nH]1,IC50,second compound 0.0316 µM,> 10 µM
same,IC50,second compound 0.1 µM,> 10 µM
same,IC50,second compound 0.316 µM,> 10 µM
same,IC50,second compound 1 µM,> 10 µM
same,IC50,second compound 3.16 µM,> 10 µM
same,IC50,second compound 10 µM,> 10 µM
same,"viability, T/C",[1],131%
same,"viability, T/C",[2],69.3%
same,"viability, T/C",[3],89.4%
same,"viability, T/C",[4],80.1%
same,"viability, T/C",[5],83%
same,"viability, T/C",[6],72.3%
same,"viability, T/C",[7],85.9%
same,"viability, T/C",[8],143%
same,"viability, T/C",[9],70.5%
same,"viability, T/C",[10],71%
same,"viability, T/C",[11],82.9%
same,"viability, T/C",[12],102%
same,"viability, T/C",[13],93.3%
same,"viability, T/C",[14],116%
same,"viability, T/C",[15],78.5%
same,"viability, T/C",[16],57.9%
same,"viability, T/C",[17],70%
same,"viability, T/C",[18],69.8%
same,"viability, T/C",[19],90.7%
same,"viability, T/C",[20],81.9%
same,"viability, T/C",[21],89.5%
same,"viability, T/C",[22],76.9%
same,"viability, T/C",[23],84.2%
same,"viability, T/C",[24],73.7%
same,"viability, T/C",[25],54.4%
same,"viability, T/C",[26],76.8%
same,"viability, T/C",[27],61.9%
same,"viability, T/C",[28],47.2%
same,"viability, T/C",[29],95.4%
same,"viability, T/C",[30],60.5%
same,"viability, T/C",[31],82.4%
same,"viability, T/C",[32],73.5%
same,"viability, T/C",[33],73%
same,"viability, T/C",[34],68.9%
same,"viability, T/C",[35],108%
same,"viability, T/C",[36],54.2%
O=c1[nH]cc(F)c(=O)[nH]1 + Cc1[nH]c2ccc(F)cc2c1-c1nc2c3cccnc3c3ncccc3c2[nH]1,IC50,second compound 0.0316 µM,> 10 µM
same,IC50,second compound 0.1 µM,> 10 µM
same,IC50,second compound 0.316 µM,> 10 µM
same,IC50,second compound 1 µM,> 10 µM
same,IC50,second compound 3.16 µM,> 10 µM
same,IC50,second compound 10 µM,> 10 µM
same,"viability, T/C",[1],138%
same,"viability, T/C",[2],85.8%
same,"viability, T/C",[3],80.8%
same,"viability, T/C",[4],98.3%
same,"viability, T/C",[5],81.7%
same,"viability, T/C",[6],87.3%
same,"viability, T/C",[7],116%
same,"viability, T/C",[8],103%
same,"viability, T/C",[9],94%
same,"viability, T/C",[10],98.6%
same,"viability, T/C",[11],70.6%
same,"viability, T/C",[12],84.9%
same,"viability, T/C",[13],86%
same,"viability, T/C",[14],103%
same,"viability, T/C",[15],87.4%
same,"viability, T/C",[16],83.7%
same,"viability, T/C",[17],86.5%
same,"viability, T/C",[18],74.9%
same,"viability, T/C",[19],101%
same,"viability, T/C",[20],83.2%
same,"viability, T/C",[21],75.8%
same,"viability, T/C",[22],65.7%
same,"viability, T/C",[23],60.6%
same,"viability, T/C",[24],89.5%
same,"viability, T/C",[25],57%
same,"viability, T/C",[26],69%
same,"viability, T/C",[27],65.7%
same,"viability, T/C",[28],75.5%
same,"viability, T/C",[29],71.3%
same,"viability, T/C",[30],63%
same,"viability, T/C",[31],81%
same,"viability, T/C",[32],78.1%
same,"viability, T/C",[33],59.6%
same,"viability, T/C",[34],71.9%
same,"viability, T/C",[35],83.1%
same,"viability, T/C",[36],55.6%
